Usually inhibition stands for the percentage by which the read-out fell short of the control.

The first test has as its system Gaeumannomyces graminis var. tritici (Ggt). The experiment in a line: In vitro Assay: mycelial growth of Ggt on minimal media agar plates containing test compound. It counts as cell-based. The note with it: 0.1 ppm in minimal media agar; dark, 19-20° C., 4 to 5 days; diameter of mycelial growth. The essentials:
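Compounds added from acetone stock into minimal (Czapek Dox) agar; plates inoculated with three 4-mm Ggt plugs, incubated in dark at 19-20° C for 4 to 5 days. Colony diameter measured; Percent Inhibition = [1-((treated mm −4)/(control mm −4))]×100.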
On to `CC(C)NC(=O)c1c(Cl)cccc1[Si](C)(C)C` [Example 21, 2-Chloro-N-(1-methylethyl)-6-(trimethylsilyl) benzarnide], for which the “In vitro (ppm) 0.1, Percent Inhibition” value is 100%.

The test is the same for the next values; noted with them: 1 ppm in minimal media agar; dark, 19-20° C., 4 to 5 days; diameter of mycelial growth.
For `CC(C)NC(=O)c1c(Cl)cccc1[Si](C)(C)C` [Example 21, 2-Chloro-N-(1-methylethyl)-6-(trimethylsilyl) benzarnide], the “In vitro (ppm) 1, Percent Inhibition” value stood at 100%.

The test is the same for the next values; noted with them: 10 ppm in minimal media agar; dark, 19-20° C., 4 to 5 days; diameter of mycelial growth.
With `CC(C)NC(=O)c1c(Cl)cccc1[Si](C)(C)C` [Example 21, 2-Chloro-N-(1-methylethyl)-6-(trimethylsilyl) benzarnide], the “In vitro (ppm) 10, Percent Inhibition” value was determined as 100%.

Staying with this test, now noted: Gaeumannomyces graminis; 0.1 ppm in minimal media agar; dark, 19-20° C., 4 to 5 days; diameter of mycelial growth; read-out: In vitro (ppm) 0.1, Percent Inhibition.
Take `C[Si](C)(C)c1cccc(Cl)c1C(=O)Nc1ccccc1` [Example 16, 2-Chloro-N-phenyl-6-(trimethylsilyl)-benzamide]: the inhibition at 0.1 ppm was found to be 11%.
Still for that read-out and setting: the result for `CCCCCCCCNC(=O)c1c(Cl)cccc1[Si](C)(C)C` [Example 17, 2-Chloro-N-octyl-6-(trimethylsilyl)-benzamide] reads 59%; that for `CCN(C(=O)c1c(Cl)cccc1[Si](C)(C)C)C(C)C` [Example 18, 2-Chloro-N-ethyl-N-(1-methylethyl)-6-(trimethylsilyl)benzamide], less than 0%; that for `CNC(=O)c1c(Cl)cccc1[Si](C)(C)C` [Example 19, 2-Chloro-N-methyl-6-(trimethylsilyl)-benzamide], less than 0%.
Same read-out and setting: the value for `CCCCNC(=O)c1c(Cl)cccc1[Si](C)(C)C` [Example 20, N-Butyl-2-chloro-6-(trimethylsilyl)-benzamide] was 7%; that for `CCN(C)C(=O)c1c(Cl)cccc1[Si](C)(C)C` [Example 22, 2-Chloro-N-ethyl-N-methyl-6-(trimethylsilyl)benzamide] was 13%.
As to `C[Si](C)(C)c1cccc(Cl)c1C(=O)NCC(F)(F)F` [Example 25, 2-Chloro-N-(2,2,2-trifluoro-ethyl)-6-(trimethylsilyl)-benzamide], the inhibition at 0.1 ppm is 19%.
On the same count and under the same terms, the value for `CCCNC(=O)c1c(Cl)cccc1[Si](C)(C)C` [Example 26, 2-Chloro-N-propyl-6-(trimethylsilyl)benzamide] was 95%.
On the same count and under the same terms, the value for `C[Si](C)(C)c1cccc(Cl)c1C(=O)NCCO` [Example 27, 2-Chloro-N-(2-hydroxyethyl)-6-(trimethylsilyl)benzamide] was 15%; that for `CCC(C)NC(=O)c1c(Cl)cccc1[Si](C)(C)C` (stereo not drawn) [Example 28, 2-Chloro-N-(1-methylpropyl)-6-(trimethylsilyl)benzamide] was 60%.
The same measure, in the same setting: the result for `C[Si](C)(C)c1cccc(Cl)c1C(=O)NCCCl` [Example 29, 2-Chloro-N-(2-chloroethyl)-6-(trimethylsilyl)benzamide] reads 100%.

Still in this test, the particulars now being: Gaeumannomyces graminis; 1 ppm in minimal media agar; dark, 19-20° C., 4 to 5 days; diameter of mycelial growth; read-out: In vitro (ppm) 1, Percent Inhibition.
For the molecule `C[Si](C)(C)c1cccc(Cl)c1C(=O)Nc1ccccc1` [Example 16, 2-Chloro-N-phenyl-6-(trimethylsilyl)-benzamide], the inhibition at 1 ppm worked out at 27%.
Turning to `CCCCCCCCNC(=O)c1c(Cl)cccc1[Si](C)(C)C` [Example 17, 2-Chloro-N-octyl-6-(trimethylsilyl)-benzamide], the inhibition at 1 ppm turned out to be 64%.
On the same count and under the same terms, the value for `CCN(C(=O)c1c(Cl)cccc1[Si](C)(C)C)C(C)C` [Example 18, 2-Chloro-N-ethyl-N-(1-methylethyl)-6-(trimethylsilyl)benzamide] was less than 0%; that for `CNC(=O)c1c(Cl)cccc1[Si](C)(C)C` [Example 19, 2-Chloro-N-methyl-6-(trimethylsilyl)-benzamide] was 7%; that for `CCCCNC(=O)c1c(Cl)cccc1[Si](C)(C)C` [Example 20, N-Butyl-2-chloro-6-(trimethylsilyl)-benzamide] was 14%.
On to `CCN(C)C(=O)c1c(Cl)cccc1[Si](C)(C)C` [Example 22, 2-Chloro-N-ethyl-N-methyl-6-(trimethylsilyl)benzamide], for which the inhibition at 1 ppm is less than 0%.
On the same count and under the same terms, the result for `C[Si](C)(C)c1cccc(Cl)c1C(=O)NCC(F)(F)F` [Example 25, 2-Chloro-N-(2,2,2-trifluoro-ethyl)-6-(trimethylsilyl)-benzamide] reads 15%; that for `CCCNC(=O)c1c(Cl)cccc1[Si](C)(C)C` [Example 26, 2-Chloro-N-propyl-6-(trimethylsilyl)benzamide], 95%; that for `C[Si](C)(C)c1cccc(Cl)c1C(=O)NCCO` [Example 27, 2-Chloro-N-(2-hydroxyethyl)-6-(trimethylsilyl)benzamide], 13%.
Regarding `CCC(C)NC(=O)c1c(Cl)cccc1[Si](C)(C)C` (stereo not drawn) [Example 28, 2-Chloro-N-(1-methylpropyl)-6-(trimethylsilyl)benzamide], the inhibition at 1 ppm is 100%.
`C[Si](C)(C)c1cccc(Cl)c1C(=O)NCCCl` [Example 29, 2-Chloro-N-(2-chloroethyl)-6-(trimethylsilyl)benzamide]: the inhibition at 1 ppm was determined as 100%.

The test is the same for the next values; noted with them: Gaeumannomyces graminis; 10 ppm in minimal media agar; dark, 19-20° C., 4 to 5 days; diameter of mycelial growth; read-out: In vitro (ppm) 10, Percent Inhibition.
As to `C[Si](C)(C)c1cccc(Cl)c1C(=O)Nc1ccccc1` [Example 16, 2-Chloro-N-phenyl-6-(trimethylsilyl)-benzamide], the inhibition at 10 ppm turned out to be 76%.
As for `CCCCCCCCNC(=O)c1c(Cl)cccc1[Si](C)(C)C` [Example 17, 2-Chloro-N-octyl-6-(trimethylsilyl)-benzamide], the inhibition at 10 ppm was determined as 64%.
Same read-out and setting: the result for `CCN(C(=O)c1c(Cl)cccc1[Si](C)(C)C)C(C)C` [Example 18, 2-Chloro-N-ethyl-N-(1-methylethyl)-6-(trimethylsilyl)benzamide] reads 100%.
Still for that read-out and setting: the value for `CNC(=O)c1c(Cl)cccc1[Si](C)(C)C` [Example 19, 2-Chloro-N-methyl-6-(trimethylsilyl)-benzamide] was 29%; that for `CCCCNC(=O)c1c(Cl)cccc1[Si](C)(C)C` [Example 20, N-Butyl-2-chloro-6-(trimethylsilyl)-benzamide] was 61%.
Take `CCN(C)C(=O)c1c(Cl)cccc1[Si](C)(C)C` [Example 22, 2-Chloro-N-ethyl-N-methyl-6-(trimethylsilyl)benzamide]: the inhibition at 10 ppm was 46%.
Turning to `C[Si](C)(C)c1cccc(Cl)c1C(=O)NCC(F)(F)F` [Example 25, 2-Chloro-N-(2,2,2-trifluoro-ethyl)-6-(trimethylsilyl)-benzamide], the inhibition at 10 ppm was 89%.
`CCCNC(=O)c1c(Cl)cccc1[Si](C)(C)C` [Example 26, 2-Chloro-N-propyl-6-(trimethylsilyl)benzamide]: the inhibition at 10 ppm is 97%.
Same read-out and setting: the value for `C[Si](C)(C)c1cccc(Cl)c1C(=O)NCCO` [Example 27, 2-Chloro-N-(2-hydroxyethyl)-6-(trimethylsilyl)benzamide] was 64%.
The same measure, in the same setting: the value for `CCC(C)NC(=O)c1c(Cl)cccc1[Si](C)(C)C` (stereo not drawn) [Example 28, 2-Chloro-N-(1-methylpropyl)-6-(trimethylsilyl)benzamide] was 100%.
Same read-out and setting: the result for `C[Si](C)(C)c1cccc(Cl)c1C(=O)NCCCl` [Example 29, 2-Chloro-N-(2-chloroethyl)-6-(trimethylsilyl)benzamide] reads 100%.

For a further test, the system named is Ggt. Kind of test: In vivo Assay: control of Ggt on wheat grown in pots of Ggt-infested soil, root disease rating. More on the design: species or system Gaeumannomyces graminis var. tritici. The note with it: 0.5 mg active ingredient per pot; 'Bergen' or 'Anza' wheat in Ggt-infested soil; after four weeks; vs untreated control. Here is the method:
Compounds are tested for control of Ggt on ‘Bergen’ or ‘Anza’ varieties of wheat grown in 3-inch square pots containing soil infested with Ggt. The infestation is accomplished by mixing the soil with an inoculum prepared by growing Ggt on ¼ strength potato dextrose agar (4.875 g potato dextrose agar, 5.0 g Bacto agar, 500 mL distilled, deionized water) in plates and using plugs from the plates to infest sterile oats (400 cc whole oats, 350 mL deionized water, autoclaved). After a one-month incubation period at room temperature, the oats are dried and mixed with the soil at 4% v/v. Four wheat seeds are placed on top of the soil in each pot. The test compounds are prepared as an 1:9 acetone/water v/v solution containing 0.18% Tween® 20 to provide a treatment rate of 0.5 mg active ingredient per pot, treated with 3 mL test solution per pot. Five pots are used for each treatment level and the controls, which are untreated, inoculated and non-inoculated pots. After one hour drying time, the seeds are covered with more of the appropriate soil and a layer of vermiculite. The pots are placed in a growth chamber and watered each day. After four weeks, each pot is evaluated for evidence of disease by examination of the seminal roots of each plant under a dissecting microscope. A 0 to 5 rating scale having the following meanings is used:
0=no runner hyphae or lesions present
1=runner hyphae and a few small lesions present on <10% of root system
2=runner hyphae and small lesions present on 10-25% of root system
3=runner hyphae and lesions present on 25-50% of root system
4=runner hyphae and many, large, coalescing lesions on >50% of root system
5=root system and culm completely inundated with lesions and runner hyphae
From each set of five replicates a high and low score is eliminated and a replicate mean is calculated by the average of the remaining three scores. This mean score is then compared to the untreated control score and a percent disease control is calculated.
With `CC(C)NC(=O)c1c(Cl)cccc1[Si](C)(C)C` [Example 21, 2-Chloro-N-(1-methylethyl)-6-(trimethylsilyl) benzarnide], the “In vivo, percent disease control” value is recorded as 100%.

The same test, now with this note: Gaeumannomyces graminis, 672 h; 0.5 mg active ingredient per pot; 'Bergen' or 'Anza' wheat in Ggt-infested soil; after four weeks; vs untreated control; read-out: In vivo, percent disease control.
For the molecule `C[Si](C)(C)c1cccc(Cl)c1C(=O)Nc1ccccc1` [Example 16, 2-Chloro-N-phenyl-6-(trimethylsilyl)-benzamide], the pest or weed control at 0.5 mg/pot came to 3%.
The same measure, in the same setting: the value for `CCCCCCCCNC(=O)c1c(Cl)cccc1[Si](C)(C)C` [Example 17, 2-Chloro-N-octyl-6-(trimethylsilyl)-benzamide] was less than 0%; that for `CCN(C(=O)c1c(Cl)cccc1[Si](C)(C)C)C(C)C` [Example 18, 2-Chloro-N-ethyl-N-(1-methylethyl)-6-(trimethylsilyl)benzamide] was 97%; that for `CNC(=O)c1c(Cl)cccc1[Si](C)(C)C` [Example 19, 2-Chloro-N-methyl-6-(trimethylsilyl)-benzamide] was 38%.
On to `CCCCNC(=O)c1c(Cl)cccc1[Si](C)(C)C` [Example 20, N-Butyl-2-chloro-6-(trimethylsilyl)-benzamide], for which the pest or weed control at 0.5 mg/pot was 36%.
As to `CCN(C)C(=O)c1c(Cl)cccc1[Si](C)(C)C` [Example 22, 2-Chloro-N-ethyl-N-methyl-6-(trimethylsilyl)benzamide], the pest or weed control at 0.5 mg/pot stood at 91%.
The same measure, in the same setting: the result for `C[Si](C)(C)c1cccc(Cl)c1C(=O)NCC(F)(F)F` [Example 25, 2-Chloro-N-(2,2,2-trifluoro-ethyl)-6-(trimethylsilyl)-benzamide] reads 56%; that for `CCCNC(=O)c1c(Cl)cccc1[Si](C)(C)C` [Example 26, 2-Chloro-N-propyl-6-(trimethylsilyl)benzamide], 99%; that for `C[Si](C)(C)c1cccc(Cl)c1C(=O)NCCO` [Example 27, 2-Chloro-N-(2-hydroxyethyl)-6-(trimethylsilyl)benzamide], 33%.
Still for that read-out and setting: the value for `CCC(C)NC(=O)c1c(Cl)cccc1[Si](C)(C)C` (stereo not drawn) [Example 28, 2-Chloro-N-(1-methylpropyl)-6-(trimethylsilyl)benzamide] was 86%.
Same read-out and setting: the value for `C[Si](C)(C)c1cccc(Cl)c1C(=O)NCCCl` [Example 29, 2-Chloro-N-(2-chloroethyl)-6-(trimethylsilyl)benzamide] was 97%.

The record behind these values is patent publication US6410558B1, “Fungicides for the control of take-all disease of plants” (Monsanto Technology LLC, priority 1991, dated 2002).
